According to US20080171783A1, “COMPOSITIONS AND METHODS FOR TREATING HYPERPROLIFERATIVE DISEASE” (Migenix Inc., priority 2006, published 2008):

Target: T1, Calf polymerase alpha (Bos taurus, UniProt A0AAA9TD94)
T1 construct: purchased Replizyme Ltd (Heslington, York, UK)
T1 sequence (A0AAA9TD94 1-1441): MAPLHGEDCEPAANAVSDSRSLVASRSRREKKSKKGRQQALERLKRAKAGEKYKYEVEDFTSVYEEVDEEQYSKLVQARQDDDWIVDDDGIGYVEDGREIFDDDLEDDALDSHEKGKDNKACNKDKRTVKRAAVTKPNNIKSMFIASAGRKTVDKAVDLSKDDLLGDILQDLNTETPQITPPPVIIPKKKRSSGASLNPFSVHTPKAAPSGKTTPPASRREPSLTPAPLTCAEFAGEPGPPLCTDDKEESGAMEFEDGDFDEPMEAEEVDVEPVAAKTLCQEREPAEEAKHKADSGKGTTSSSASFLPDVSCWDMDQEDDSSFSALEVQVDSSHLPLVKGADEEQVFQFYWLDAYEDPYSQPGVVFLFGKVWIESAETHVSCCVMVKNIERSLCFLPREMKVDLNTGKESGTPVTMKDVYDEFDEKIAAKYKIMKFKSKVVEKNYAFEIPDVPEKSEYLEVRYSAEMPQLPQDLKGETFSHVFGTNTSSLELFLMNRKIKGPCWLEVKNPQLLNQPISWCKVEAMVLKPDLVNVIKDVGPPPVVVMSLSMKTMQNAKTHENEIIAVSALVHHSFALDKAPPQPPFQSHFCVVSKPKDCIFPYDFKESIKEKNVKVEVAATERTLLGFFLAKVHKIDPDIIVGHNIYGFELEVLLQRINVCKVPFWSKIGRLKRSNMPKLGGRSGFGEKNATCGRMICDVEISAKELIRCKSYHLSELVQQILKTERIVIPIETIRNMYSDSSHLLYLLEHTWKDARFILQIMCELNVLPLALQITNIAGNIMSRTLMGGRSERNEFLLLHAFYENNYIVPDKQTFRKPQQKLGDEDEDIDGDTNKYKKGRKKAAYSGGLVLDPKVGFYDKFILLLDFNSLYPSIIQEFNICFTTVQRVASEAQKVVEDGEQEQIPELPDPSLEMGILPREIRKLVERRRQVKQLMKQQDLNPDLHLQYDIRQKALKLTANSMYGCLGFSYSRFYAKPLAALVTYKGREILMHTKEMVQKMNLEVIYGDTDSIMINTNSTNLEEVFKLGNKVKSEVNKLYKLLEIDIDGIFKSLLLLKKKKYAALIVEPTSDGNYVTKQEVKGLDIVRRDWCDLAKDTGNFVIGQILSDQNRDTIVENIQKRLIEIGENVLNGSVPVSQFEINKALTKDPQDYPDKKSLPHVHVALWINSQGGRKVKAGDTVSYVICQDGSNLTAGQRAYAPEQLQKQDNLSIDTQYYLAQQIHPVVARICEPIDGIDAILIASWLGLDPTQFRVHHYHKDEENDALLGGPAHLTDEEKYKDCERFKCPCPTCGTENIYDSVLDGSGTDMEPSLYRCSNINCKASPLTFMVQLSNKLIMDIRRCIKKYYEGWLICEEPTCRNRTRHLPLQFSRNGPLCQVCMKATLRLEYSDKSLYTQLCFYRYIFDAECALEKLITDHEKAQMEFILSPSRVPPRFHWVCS
Assay: Calf polymerase alpha inhibition (Replizyme kit)
Assay type: biochemical
Settings: at 10 μM, single point screening
Procedure: Calf polymerase alpha and human polymerase alpha investigations were performed with a kit available from Replizyme Ltd (Heslington, York, UK).

Structure (SMILES): Cc1ccc(NC(=O)[C@H](CCCCN)NC(=O)OCC2c3ccccc3-c3ccccc32)cc1 [Compound 20, (S)-(5-AMINO-1-P-TOLYLCARBAMOYL-PENTYL)-CARBAMIC ACID 9H-FLUOREN-9-YLMETHYL ESTER]
- inhibition at 10 µM: 18%

Structure (SMILES): NCCCC[C@H](NC(=O)OCC1c2ccccc2-c2ccccc21)C(=O)NCc1ccccc1 [Compound 21, (S)-(5-AMINO-1-BENZYLCARBAMOYL-PENTYL)-CARBAMIC ACID 9H-FLUOREN-9-YLMETHYL ESTER]
- inhibition at 10 µM: 12%

Structure (SMILES): NCCCC[C@H](NC(=O)OCC1c2ccccc2-c2ccccc21)C(=O)NC1CCCCC1 [Compound 22, (S)-(5-AMINO-1-CYCLOHEXYLCARBAMOYL-PENTYL)-CARBAMIC ACID 9H-FLUOREN-9-YLMETHYL ESTER]
- inhibition at 10 µM: 14%

Structure (SMILES): NCCCC[C@H](NC(=O)OCC1c2ccccc2-c2ccccc21)C(=O)N(Cc1ccccc1)C1CCCCC1 [Compound 33, (S)-[5-AMINO-1-(BENZYL-CYCLOHEXYL-CARBAMOYL)-PENTYL]-CARBAMIC ACID 9H-FLUOREN-9-YLMETHYL ESTER]
- inhibition at 10 µM: 95%

Structure (SMILES): Cc1ccc(NC(=O)[C@H](CCCCN)NC(=O)Nc2ccc(-c3ccccc3)cc2)cc1 [Compound 40, (S)-6-AMINO-2-(3-BIPHENYL-4-YL-UREIDO)-HEXANOIC ACID P-TOLYLAMIDE]
- % Inhibition: 95%

Structure (SMILES): Cc1ccc(NC(=O)[C@H](CCCCN)NC(=O)C2c3ccccc3-c3ccccc32)cc1 [Compound 52, (S)-9H-FLUORENE-9-CARBOXYLIC ACID (5-AMINO-1-P-TOLYLCARBAMOYL-PENTYL)-AMIDE]
- % Inhibition: 13%

Structure (SMILES): Cc1ccc(NC(=O)[C@H](CCCCN)NC(=O)CC2c3ccccc3-c3ccccc32)cc1 [Compound 53, (S)-6-AMINO-2-(2-9H-FLUOREN-9-YL-ACETYLAMINO)-HEXANOIC ACID P-TOLYLAMIDE]
- % Inhibition: 22%

Structure (SMILES): Cc1ccc(NC(=O)[C@H](CCCCN)NC(=O)Nc2ccc(Cc3ccccc3)cc2)cc1 [Compound 74, (S)-6-AMINO-2-[3-(4-BENZYL-PHENYL)-UREIDO]-HEXANOIC ACID P-TOLYLAMIDE]
- % Inhibition: 92%

Structure (SMILES): Cc1ccc(N(C)C(=O)[C@H](CCCCN)NC(=O)OCC2c3ccccc3-c3ccccc32)cc1 [Compound 92, (S)-[5-AMINO-1-(METHYL-P-TOLYL-CARBAMOYL)-PENTYL]-CARBAMIC ACID 9H-FLUOREN-9-YLMETHYL ESTER]
- % Inhibition: 56.5%

Structure (SMILES): Cc1cc2cc(NC(=O)[C@H](CCCCN)NC(=O)Nc3ccc(-c4ccccc4)cc3)ccc2[nH]1 [Compound 94, (S)-6-AMINO-2-(3-BIPHENYL-4-YL-UREIDO)-HEXANOIC ACID (2-METHYL-1H-INDOL-5-YL)-AMIDE]
- inhibition at 10 µM: 93%

Structure (SMILES): Cc1ccc(NC(=O)[C@H](CN)NC(=O)OCC2c3ccccc3-c3ccccc32)cc1 [Compound 103, (S)-(2-AMINO-1-P-TOLYLCARBAMOYL-ETHYL)-CARBAMIC ACID 9H-FLUOREN-9-YLMETHYL ESTER]
- % Inhibition: 72%

Structure (SMILES): Cc1ccc(NC(=O)[C@H](CCN)NC(=O)OCC2c3ccccc3-c3ccccc32)cc1 [Compound 108, (S)-(3-AMINO-1-P-TOLYLCARBAMOYL-PROPYL)-CARBAMIC ACID 9H-FLUOREN-9-YLMETHYL ESTER]
- % Inhibition: 84%

Structure (SMILES): Cc1ccc(NC(=O)[C@H](CCCC[N+](C)(C)C)NC(=O)OCC2c3ccccc3-c3ccccc32)cc1 [Compound 110]
- % Inhibition: 62.5%

Structure (SMILES): Cc1ccc(NC(=O)[C@@H](N)CCCCN)cc1 [Compound 114, (S)-2,6-DIAMINO-HEXANOIC ACID P-TOLYLAMIDE]
- % Inhibition: 17%

Structure (SMILES): NCCCCC[C@H](NC(=O)Nc1ccc(OCc2ccccc2)cc1)C(=O)Nc1ccc(C2CCCCC2)cc1 [Compound 121, (S)-7-AMINO-2-[3-(4-BENZYLOXY-PHENYL)-UREIDO]-HEPTANOIC ACID (4-CYCLOHEXYL-PHENYL)-AMIDE]
- inhibition at 10 µM: 102%

Structure (SMILES): Cc1ccc(NC(=O)[C@H](CCCCN(C)C)NC(=O)OCC2c3ccccc3-c3ccccc32)cc1 [Compound 124, (S)-(5-DIMETHYLAMINO-1-P-TOLYLCARBAMOYL-PENTYL)-CARBAMIC ACID 9H-FLUOREN-9-YLMETHYL ESTER]
- % Inhibition: 79%
